Assay results published in patent US10358453B2, “Antiviral compounds” (priority 2015, dated 2019).
Read-outs that look alike come from different tables or passages of the source.

Legend:
[1] = Cytotoxicity determination (CCK-8, without addition of virus); format: cell-based; conditions: human, HEp-2 cells (uninfected), no virus, Table C = greater than 100 μM, Table D = equal to or less than 100 μM and greater than 10 μM
Experimental: CPE reduction assays are performed as described by Sidwell and Huffman et al., Appl. Microbiol. (1971) 22(5):797-801 with slight modifications. HEp-2 cells (ATCC#, CCL-23) are seeded at a density of 1,500 cells/30 μL/well into the 384-well cell plate(s) (Corning#3701) one day prior to the assay. Compounds are added into 384-well cell plates by Labcyte POD 810 Plate Assembler system. Each of the test compounds is provided to duplicate wells of a 384-well cell plate at final concentrations starting from 100 μM or 1 μM using 1/3 stepwise dilutions for 9 points. Quick-thaw Respiratory Syncytial Virus (RSV) long strain (ATCC#VR-26) stock in a 37° C. water bath. Place on ice until ready to use. Viruses are diluted to the concentration of 100 TCID50/30 μL with medium and 30 μl diluted RSV are added into related wells of 384-well cell plates. For each plate, sixteen wells are set aside as uninfected, untreated cell controls (CC), and nine wells per test plate receive virus only as a control for virus replication (VC). The final DMSO concentration of all wells is 1%. Place the plates at 37° C., 5% CO2 for 5 days.
In order to determine the compound cytotoxicity, in parallel, each of the compounds is applied to duplicate wells in a 384-well cell plate at serial final concentrations starting from 100 μM using ½ stepwise dilutions for 7 points without addition of virus. Incubate the cells at 37° C., 5% CO2 for 5 days. Add 6 μL CCK-8 into each well and incubate in a CO2 incubator at 37° C. for 3-4 h. Read the plates to obtain the optical densities which are used to calculate 50% cytotoxicity concentration (CC50).

recombinant RSV complex = recombinant RSV complex (Human respiratory syncytial virus A, UniProt P28887); assay: RSV polymerase inhibition assay; format: biochemical; conditions: 2 h at 30° C., Table E = <1 μM, Table F = <50 μM
Experimental: Standard RSV polymerase assays were conducted in the presence of 10 nM recombinant RSV complex in a reaction buffer containing Tris-HCl pH7.5, 6 mM MgCl2, and other additives and substrates including RNA oligonucleotides and radionucleotides. Standard reactions were incubated in 96-well plate format for 2 h at 30° C., in the presence of increasing concentration of inhibitor. The reaction was stopped with 90 μL of 0.1M EDTA, and the reaction product was transferred to a “reading” 96-well plate. After washing of the plate, radiolabeled RNA products were detected according to standard procedures with a Trilux Topcount scintillation counter. The compound concentration at which the enzyme-catalyzed rate was reduced by 50% (IC50) was calculated by fitting the data to a non-linear regression (sigmoidal).

[2] = system: RSV subgenomic replicon 395 HeLa and APC126; assay: RSV subgenomic replicon assay (Renilla luciferase); format: cell-based; conditions: human respiratory syncytial virus; RSV replicon cells (395 HeLa 7 days or APC126 3 days); Table G = less than 1 μM, Table H = equal to or higher than 1 μM and less than 50 μM
Source text: The RSV subgenomic replicon 395 HeLa and APC126 were licensed from Apath (Brooklyn, N.Y.) and were originally developed by Dr. Mark Meeples of Center for Vaccines & Immunity, the Research Institute at Nationwide Children's Hospital in Columbus, Ohio. To generate subgenomic RSV replicon, three glycoprotein genes, those for SH, G, and F, from a full-length recombinant GFP-expressing (rg) RSV antigenomic cDNA were deleted. In their place, a blasticidin S deaminase (bsd) gene was inserted. Through multiple steps, the RSV replicon was established in HeLa cells (395 Hela) or BHK cells (APC126). Both 395 HeLa and APC126 cells were cultured in Dulbecco's Modified Eagle Medium (DMEM) containing 4500 mg/L D-glucose, L-glutamine, and 110 mg/L sodium pyruvate (Invitrogen, Cat. #11995-040). The medium was further supplemented with 10% (v/v) fetal bovine serum (FBS) (Mediatech, Cat. #35-010-CV), 1% (v/v) penicillin/streptomycin (Mediatech, Cat. #30-002-CI), and 10 μg/mL of Blasticidin (BSD) (Invivogen, Cat. code ant-bl-1). Cells were maintained at 37° C. in a humidified 5% CO2 atmosphere.
Determination of 50% inhibitory concentration (EC50), 90% inhibitory concentration (EC90) and 50% cytotoxic concentration (CC50) in RSV replicon cells were performed by the following procedure. On the first day, 5000 RSV replicon cells per well were plated in a 96-well plate. On the following day, compounds to be tested were solubilized in 100% DMSO to 100X the desired final testing concentration. Each compound was serially diluted (1:3) up to 9 distinct concentrations. Compounds in 100% DMSO were reduced to 10% (v/v) DMSO by diluting 1:10 in cell culture media. A 10 μL sample of the compounds diluted to 10% (v/v) DMSO with cell culture media was used to treat the RSV replicon cells in 96-well format. The final DMSO concentration was 1% (v/v). Cells were incubated with compounds for 7 days (for 395Hela) or 3 days (for APC126) at 37° C. in a 5% CO2 atmosphere. In each assay, positive control that was previously characterized in the RSV replicon assay was included.
The Renilla Luciferase Assay System (Promega, Cat. #E2820) was used to measure anti-RSV replicon activity. Assay plates were set up as stated above. Luminescence was recorded using a Perkin Elmer multilabel counter Victor3V. EC50, the concentration of the drug required for reducing RSV replicon RNA by 50% in relation to the untreated cell control value, was calculated from the plot of percentage reductions of the […] against the drug concentrations using the Microsoft Excel forecast function.

[3] = 10 nM recombinant RSV complex, read-out: IC50

Sequence of recombinant RSV complex (P28887 whole entry): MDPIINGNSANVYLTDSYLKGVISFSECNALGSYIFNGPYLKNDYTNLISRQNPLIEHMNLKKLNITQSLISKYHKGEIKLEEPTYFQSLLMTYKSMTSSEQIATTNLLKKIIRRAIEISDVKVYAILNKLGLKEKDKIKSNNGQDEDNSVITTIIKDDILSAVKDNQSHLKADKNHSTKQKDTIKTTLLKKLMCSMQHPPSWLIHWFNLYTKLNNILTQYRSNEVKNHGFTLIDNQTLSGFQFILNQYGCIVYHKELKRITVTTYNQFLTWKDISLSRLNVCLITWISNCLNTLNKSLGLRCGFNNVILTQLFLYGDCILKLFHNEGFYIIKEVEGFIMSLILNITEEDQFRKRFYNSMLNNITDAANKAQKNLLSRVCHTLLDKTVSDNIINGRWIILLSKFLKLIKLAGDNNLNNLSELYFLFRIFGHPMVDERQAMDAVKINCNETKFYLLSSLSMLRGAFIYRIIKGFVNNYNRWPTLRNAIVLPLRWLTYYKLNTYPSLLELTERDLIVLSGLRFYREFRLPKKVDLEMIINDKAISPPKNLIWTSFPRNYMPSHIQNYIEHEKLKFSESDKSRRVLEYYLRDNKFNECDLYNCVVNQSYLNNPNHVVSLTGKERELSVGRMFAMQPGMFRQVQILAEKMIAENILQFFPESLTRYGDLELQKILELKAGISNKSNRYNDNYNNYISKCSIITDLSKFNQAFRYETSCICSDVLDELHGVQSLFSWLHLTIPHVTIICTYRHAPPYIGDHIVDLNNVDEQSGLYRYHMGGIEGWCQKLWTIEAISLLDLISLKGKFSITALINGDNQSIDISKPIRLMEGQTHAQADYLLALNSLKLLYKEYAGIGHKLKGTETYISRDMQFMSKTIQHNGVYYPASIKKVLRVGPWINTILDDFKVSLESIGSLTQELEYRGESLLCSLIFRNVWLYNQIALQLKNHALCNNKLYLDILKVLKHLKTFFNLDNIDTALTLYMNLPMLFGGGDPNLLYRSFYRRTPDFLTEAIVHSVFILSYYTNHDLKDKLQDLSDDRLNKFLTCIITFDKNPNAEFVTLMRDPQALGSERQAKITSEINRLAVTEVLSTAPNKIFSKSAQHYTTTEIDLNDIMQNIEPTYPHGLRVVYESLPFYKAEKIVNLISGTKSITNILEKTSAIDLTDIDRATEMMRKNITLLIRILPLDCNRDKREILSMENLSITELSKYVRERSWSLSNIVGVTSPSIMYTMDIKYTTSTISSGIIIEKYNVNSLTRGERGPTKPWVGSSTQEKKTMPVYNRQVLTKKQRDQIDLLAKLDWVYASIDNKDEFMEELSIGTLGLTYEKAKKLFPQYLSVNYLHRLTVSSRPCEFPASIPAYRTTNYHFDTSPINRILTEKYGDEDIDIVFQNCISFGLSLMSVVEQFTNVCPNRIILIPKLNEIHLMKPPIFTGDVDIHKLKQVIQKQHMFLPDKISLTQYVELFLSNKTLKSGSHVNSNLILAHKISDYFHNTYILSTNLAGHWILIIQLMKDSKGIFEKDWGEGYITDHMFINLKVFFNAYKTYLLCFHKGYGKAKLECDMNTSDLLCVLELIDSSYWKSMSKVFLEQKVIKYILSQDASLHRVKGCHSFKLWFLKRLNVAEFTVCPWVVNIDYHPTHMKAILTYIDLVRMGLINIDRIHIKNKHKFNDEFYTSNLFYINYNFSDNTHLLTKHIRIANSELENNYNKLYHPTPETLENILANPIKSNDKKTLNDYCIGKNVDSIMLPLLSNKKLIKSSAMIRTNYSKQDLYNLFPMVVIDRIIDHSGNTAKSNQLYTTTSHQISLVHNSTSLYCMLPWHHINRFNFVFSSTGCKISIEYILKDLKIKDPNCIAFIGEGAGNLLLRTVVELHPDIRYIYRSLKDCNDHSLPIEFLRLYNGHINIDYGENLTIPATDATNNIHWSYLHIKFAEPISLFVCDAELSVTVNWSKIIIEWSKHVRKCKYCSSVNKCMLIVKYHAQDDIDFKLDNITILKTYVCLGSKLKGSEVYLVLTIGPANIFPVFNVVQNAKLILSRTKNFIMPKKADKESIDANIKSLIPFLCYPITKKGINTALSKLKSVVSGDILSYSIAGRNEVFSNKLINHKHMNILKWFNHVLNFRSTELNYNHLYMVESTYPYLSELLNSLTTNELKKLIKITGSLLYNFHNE
Sequence of recombinant RSV complex (P03421 whole entry, further chain): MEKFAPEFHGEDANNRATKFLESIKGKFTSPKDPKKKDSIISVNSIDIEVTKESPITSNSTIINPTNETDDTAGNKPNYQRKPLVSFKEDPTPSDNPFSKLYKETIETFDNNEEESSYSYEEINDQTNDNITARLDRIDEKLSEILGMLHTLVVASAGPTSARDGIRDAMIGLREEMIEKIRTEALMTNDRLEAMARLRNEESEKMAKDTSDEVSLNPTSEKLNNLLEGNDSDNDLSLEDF

| SMILES | CC50 at 5 days [1] | IC50 (recombinant RSV complex; [3]) | EC50 [2] | IC50 (recombinant RSV complex; IC50, 10 nM recombinant RSV complex) |
| --- | --- | --- | --- | --- |
| COc1cc(C(=O)NC[C@](O)(c2cc3c(c(-c4ccc(F)cc4)n2)NCC[C@]3(C)N)C(F)(F)F)ccc1OC[C@@H](C)O [Compound 101] | 10 to 100 µM | < 1 µM | < 1 µM | – |
| CC(C)(N)c1cc(-c2ccc(F)cc2)nc([C@@](O)(CNC(=O)c2ccc(OC3CC3)c(OCCO)c2)C(F)(F)F)c1 [Compound 59] | 10 to 100 µM | < 1 µM | < 1 µM | – |
| COc1cc(C(=O)NC[C@@](O)(c2cc3c(c(-c4ccc(F)cc4)n2)NC[C@@]3(C)N)C(F)(F)F)ccc1OCC(N)=O [Compound 72] | > 100 µM | < 1 µM | < 1 µM | – |
| COc1nc(C(=O)NC[C@@](O)(c2cc3c(c(-c4ccc(F)cc4)n2)OC[C@@]3(C)N)C(F)(F)F)cc2c1NC(=O)C2 [Compound 93] | 10 to 100 µM | < 50 µM | 1 to 50 µM | – |
| COc1cc(C(=O)NC[C@@](O)(c2cc3c(c(-c4ccc(F)cc4)n2)OC[C@@]3(C)NC(C)=N)C(F)(F)F)ccc1OC[C@@H](C)O [Compound 130] | > 100 µM | < 1 µM | < 1 µM | – |
| C[C@@H](O)COc1cc(C(=O)NCC(O)(c2cc(C(C)(C)N)cc(-c3ccc(F)cc3)n2)C(F)(F)F)ccc1OC1CC1 (stereo partly drawn) [Compound 38] | 10 to 100 µM | – | < 1 µM | < 1 µM |
| COc1cc(C(=O)NC[C@@](O)(c2cc3c(c(-c4ccc(F)cc4)n2)NC[C@@]3(C)N)C(F)(F)F)ccc1OC1CC1 [Compound 127] | 10 to 100 µM | < 1 µM | < 1 µM | – |
| COc1cc(C(=O)NC[C@@](O)(c2cc3c(c(-c4ccc(F)cc4)n2)NC[C@@]3(C)N)C(F)(F)F)ccc1OCCO (single isomer, unassigned) [Compound 51] | > 100 µM | < 1 µM | < 1 µM | – |
| COc1cc(C(=O)NCC(O)(c2cc3c(c(-c4ccc(F)cc4)n2)OCC3(C)N)C(F)(F)F)ccc1NC1CC1 (stereo not drawn) [Compound 31] | 10 to 100 µM | < 1 µM | < 1 µM | – |
| COc1cc(C(=O)NCC(O)(c2cc3c(c(-c4ccc(F)cc4)n2)OCC32CCN2)C(F)(F)F)ccc1OC[C@@H](C)O (stereo partly drawn) [Compound 108] | 10 to 100 µM | < 1 µM | 1 to 50 µM | – |
| COc1cc(C(=O)NCC(O)(c2cc3c(c(-c4ccc(F)cc4)n2)OCC3(N)CO)C(F)(F)F)cc2cc[nH]c12 (stereo not drawn) [Compound 102] | 10 to 100 µM | < 1 µM | 1 to 50 µM | – |
| COc1cc(C(=O)NCC(O)(c2cc3c(c(-c4ccc(F)cc4)n2)OCC3(C)N)C(F)(F)F)cc2c1NC(=O)NC2 (stereo not drawn) [Compound 43] | 10 to 100 µM | < 1 µM | 1 to 50 µM | – |
| COc1cc(C(=O)NC[C@@](O)(c2cc3c(c(-c4ccc(F)cc4)n2)NC[C@@]3(C)N)C(F)(F)F)cc2cccnc12 [Compound 74] | 10 to 100 µM | < 1 µM | < 1 µM | – |
| CC1(N)COc2c1cc(C(O)(CNC(=O)c1ccc(CO)c(OC3CC3)c1)C(F)(F)F)nc2-c1ccc(F)cc1 (stereo not drawn) [Compound 22] | 10 to 100 µM | < 1 µM | < 1 µM | – |
| COc1cc(C(=O)NCC(O)(c2cc(C3(C)COCCN3)cc(-c3ccc(F)cc3)n2)C(F)(F)F)ccc1OCCO (stereo not drawn) [Compound 119] | > 100 µM | < 1 µM | < 1 µM | – |
| CC(C)(N)c1cc(-c2ccc(F)cc2)nc(C(O)(CNC(=O)c2ccc(OC3CC3)c(OCCO)c2)C(F)(F)F)c1 (stereo not drawn) [Compound 36] | 10 to 100 µM | < 1 µM | < 1 µM | – |
| C[C@@H](O)COc1ccc(C(=O)NC[C@@](O)(c2cc3c(c(-c4ccc(F)cc4)n2)OC[C@@]3(C)N)C(F)(F)F)cc1Cl [Compound 113] | 10 to 100 µM | < 1 µM | < 1 µM | – |
| COc1cc(C(=O)NCC(O)(c2cc3c(c(-c4ccc(F)cc4)n2)OCCC3(C)N)C(F)(F)F)ccc1OC[C@@H](C)O (stereo partly drawn) [Compound 103] | 10 to 100 µM | < 1 µM | < 1 µM | – |
| COc1cc(C(=O)NC[C@@](O)(c2cc3c(c(-c4ccc(F)cc4)n2)OC[C@@]3(C)N)C(F)(F)F)cc2ccc(CO)nc12 [Compound 84] | 10 to 100 µM | < 1 µM | < 1 µM | – |
| C[C@@]1(N)CNc2c1cc([C@](O)(CNC(=O)c1cc(OCCO)c3ncccc3c1)C(F)(F)F)nc2-c1ccc(F)cc1 [Compound 81] | 10 to 100 µM | < 1 µM | < 1 µM | – |
| COc1cc(C(=S)NCC(O)(c2cc3c(c(-c4ccc(F)cc4)n2)OCC3(C)N)C(F)(F)F)ccc1OCCO (stereo not drawn) [Compound 44] | 10 to 100 µM | < 1 µM | < 1 µM | – |
| COc1nc(C(=O)NCC(O)(c2cc3c(c(-c4ccc(F)cc4)n2)OCC3(C)N)C(F)(F)F)cc2c1NC(=O)C2 (stereo not drawn) [Compound 47] | 10 to 100 µM | < 1 µM | < 1 µM | – |
| COc1cc(C(=O)NC[C@](O)(c2cc3c(c(-c4ccc(F)cc4)n2)OC[C@]3(N)C2CC2)C(F)(F)F)ccc1OC[C@@H](C)O (single isomer, unassigned) [Compound 107] | 10 to 100 µM | < 50 µM | 1 to 50 µM | – |
